Results on 13 compounds are retold here after ChEMBL document CHEMBL1201862, “PubChem BioAssay data set” (2004).

What all share (experiment): DTP human tumour cell line panel, 48 h
For assay [1], the system named is A498.
In assay [2] the test system is COLO 205.
The subject of assay [3] is EKVX.
In assay [4] the test system is HCT-116.
The test system of assay [5] is HOP-62.
Assay [6] has as its system HOP-92.
Assay [7] deals with HT-29.
In assay [8] the test system is IGROV-1.
The test system of assay [9] is M14.
Assay [10] has as its system Malme-3M.
The test system of assay [11] is NCI-H23.
Assay [12] has as its system SF-295.
The test system of assay [13] is SK-MEL-2.
The subject of assay [14] is SK-MEL-5.
For assay [15], the system named is SK-OV-3.
In assay [16] the test system is U-251.
Assay [17] deals with UACC-257.
Assay [18] deals with SR.

For orientation: GI50 means the concentration giving 50% growth inhibition.

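1) Cells in 96-well plates. 2) Compound, 48 h, 5 concentrations. 3) Linear interpolation between surrounding doses. 4) Unreached endpoint = highest concentration. The concentration for 50% growth inhibition is given as GI50.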 Active and inactive are the calls of the source. Cut-off read from the data, not from the text of the source: active = GI50 up to about 1.1 µM and inactive = higher.

On to `COc1ccc(NN=C2C(=O)CCC2=O)cc1`, for which the GI50 in [1] is 55 µM (inactive); in assay [2], 47.2 µM (inactive); in [3] it was > 100 µM (inactive); in [4], > 100 µM (inactive); in assay [5] it was 50 µM (inactive); in [6], > 100 µM (inactive). Moreover, the GI50 is > 100 µM (inactive) in [7]; > 100 µM (inactive) in assay [8]; 57.3 µM (inactive) in assay [9]; > 100 µM (inactive) in assay [10]; 69 µM (inactive) in assay [11]; 98.9 µM (inactive) in assay [12]. The GI50 in assay [13] is > 100 µM (inactive); in [14], 48.2 µM (inactive); in [15], > 100 µM (inactive); in assay [16], > 100 µM (inactive); in [17] it was 52.4 µM (inactive).
As to `CCOc1cc(/C=C/C=C/c2ccc(N(C)C)cc2)[s+]c2ccccc12`, the GI50 was 28.2 µM (inactive) in assay [1]; 34.9 µM (inactive) in [2]; 34.5 µM (inactive) in [3]; 21.7 µM (inactive) in assay [4]; 7.71 µM (inactive) in assay [5]; 23.5 µM (inactive) in assay [6]. The GI50 is 35.8 µM (inactive) in assay [7]; 21.6 µM (inactive) in assay [8]; 38.7 µM (inactive) in [9]; 28.9 µM (inactive) in assay [10]; 34.6 µM (inactive) in [11]; 33.8 µM (inactive) in assay [12]. The GI50 is 20.4 µM (inactive) in [13]; 11.8 µM (inactive) in assay [14]; 34 µM (inactive) in [15]; 5.36 µM (inactive) in [16]; 23.3 µM (inactive) in assay [17].
For `Cc1ccccc1C(=O)c1ccccc1O`, the GI50 in [1], in assay [2], in [3], in [4], in assay [5] and in assay [6] was > 100 µM (inactive) each time. The GI50 in [7], in assay [8], in [9], in assay [10], in [11] and in assay [12] was > 100 µM (inactive) each time. Further, the GI50 in assay [13], in [14], in assay [15], in assay [16] and in assay [17] was > 100 µM (inactive) each time.
For the compound `CCOC(=O)C1=C(Nc2ccc(Cl)c(Cl)c2)OC/C1=N\NC(=O)Cc1ccccc1`, the GI50 in [1] is > 100 µM (inactive); in assay [2], > 100 µM (inactive); in [3], > 100 µM (inactive); in [4], 99.8 µM (inactive); in [5], > 100 µM (inactive); in assay [8] it was > 100 µM (inactive). The GI50 in assay [9], in assay [10], in assay [11], in assay [12], in assay [13] and in assay [14] was > 100 µM (inactive) each time. Also, the figures for the GI50 in assay [15], in [16] and in assay [17] were > 100 µM (inactive), > 100 µM (inactive) and 63.7 µM (inactive), respectively.
As for `COC(=O)C1=CC(=O)[C@@H]2CCCC[C@H]12`, the GI50 in [2], in [4], in assay [5], in [9], in assay [10] and in assay [13] was > 100 µM (inactive) throughout. The GI50 in assay [15], in assay [18], in assay [16] and in assay [17] was > 100 µM (inactive) in each case.
As to `COc1ccc(C2C(Cl)C(=O)N2NC(=O)Cc2ccccc2)cc1OC` (configuration not stated), the GI50 in assay [2], in assay [3], in [4], in assay [5], in assay [7] and in [8] was > 100 µM (inactive) in each case. Besides, the GI50 in assay [9], in assay [10], in [11], in [12], in assay [13] and in [14] was > 100 µM (inactive) throughout. Also, the GI50 in assay [15], in assay [18], in [16] and in [17] was > 100 µM (inactive) throughout.
As to `COc1cccc(C2SCc3nc4ccccc4n32)c1` (configuration not stated), the GI50 in assay [1] is 38 µM (inactive); in assay [2], > 100 µM (inactive); in assay [3], 46.3 µM (inactive); in assay [4], 39.7 µM (inactive); in assay [5], > 100 µM (inactive); in assay [6], 12.2 µM (inactive). Also, the GI50 in [7] was 41.9 µM (inactive); in assay [8], 45.5 µM (inactive); in assay [9], 77.1 µM (inactive); in [10] it was 54.6 µM (inactive); in [11] it was 35 µM (inactive); in assay [12] it was 35.7 µM (inactive). For the same compound, the GI50 in assay [13] is 56.2 µM (inactive); in assay [14], 21.1 µM (inactive); in assay [15], 65.3 µM (inactive); in [16] it was 76.6 µM (inactive); in assay [17], 44.3 µM (inactive).
For `CC(=O)Nc1ccc(/C=C/c2ccc(NC(=O)Nc3ccc(/C=C/c4ccc(NC(C)=O)cc4S(=O)(=O)O)c(S(=O)(=O)O)c3)cc2S(=O)(=O)O)c(S(=O)(=O)O)c1`, the GI50 is > 100 µM (inactive) in assay [1]; > 100 µM (inactive) in [2]; > 100 µM (inactive) in [3]; > 100 µM (inactive) in assay [4]; > 100 µM (inactive) in assay [5]; 43.1 µM (inactive) in assay [6]. For the same compound, the GI50 in assay [7], in assay [8], in [10], in assay [11], in assay [12] and in assay [13] was > 100 µM (inactive) each time. Moreover, the GI50 in assay [14], in assay [15], in assay [16] and in [17] was > 100 µM (inactive) each time.
As to `c1ccc(-c2ccnc3c2ccc2c(-c4ccccc4)ccnc23)cc1`, the GI50 in [1] was 2.53 µM (inactive); in [2], 2.98 µM (inactive); in assay [3], 0.664 µM (active); in assay [4], 0.555 µM (active); in assay [5] it was 1.89 µM (inactive); in [7] it was 1.18 µM (inactive). In addition, the GI50 in assay [8] was 0.931 µM (active); in assay [9] it was 3.37 µM (inactive); in assay [10], 4.06 µM (inactive); in [11], 1.85 µM (inactive); in assay [13] it was 3.37 µM (inactive); in assay [14] it was 0.736 µM (active). The GI50 in [15] is 2.65 µM (inactive); in [18], 0.273 µM (active); in [16] it was 1.17 µM (inactive); in assay [17], 2.28 µM (inactive).
For `CC[C@@]1(O)C[C@H](OC2CC(N(C)C)C(OC3CC(O)C(OC4CC(O)C(O)C(C)O4)C(C)O3)C(C)O2)c2c(cc3c(c2O)C(=O)c2c(O)ccc(O)c2C3=O)[C@H]1C(=O)OC` (some centres not stated), the GI50 in assay [1] is 0.0146 µM (active); in [2] it was 0.0131 µM (active); in [3], 0.0413 µM (active); in assay [4] it was 0.00507 µM (active); in assay [5] it was 0.06 µM (active); in assay [6] it was 0.0902 µM (active). The concentration for 50% growth inhibition (GI50) was 0.022 µM (active) in assay [7]; < 0.023 µM (active) in assay [8]; 0.0478 µM (active) in [10]; 0.0404 µM (active) in assay [11]; 0.0113 µM (active) in assay [12]; 0.0398 µM (active) in assay [13]. For the same compound, the GI50 is 0.0194 µM (active) in assay [14], 0.0811 µM (active) in assay [15], 0.084 µM (active) in assay [16] and 0.0255 µM (active) in assay [17].
Take `O=C1C(=O)N(c2ccc(Cl)c(Cl)c2)C(=O)C(=O)C1c1nc2ccccc2o1`: the GI50 in assay [2] is 47.2 µM (inactive); in assay [4] it was 34.1 µM (inactive); in [5], > 100 µM (inactive); in assay [6], > 100 µM (inactive); in assay [7], 41.6 µM (inactive); in assay [8], > 100 µM (inactive). For the same compound, the GI50 in assay [9] is 80.4 µM (inactive); in assay [10], 87.9 µM (inactive); in assay [11], 68.7 µM (inactive); in assay [12], > 100 µM (inactive); in [13] it was > 100 µM (inactive); in [15] it was > 100 µM (inactive). Also, the GI50 is 30 µM (inactive) in assay [18], 33.3 µM (inactive) in assay [16] and 98.4 µM (inactive) in [17].
For the compound `COc1ccc(-c2onc(-c3c(C)cc(C)cc3C)c2C2=NCCN2)cc1`, the GI50 was 20.4 µM (inactive) in assay [2]; 70 µM (inactive) in [3]; 20.4 µM (inactive) in assay [4]; 59.2 µM (inactive) in assay [5]; 25.5 µM (inactive) in assay [7]; > 100 µM (inactive) in assay [8]. Also, the GI50 in assay [9] is 19.5 µM (inactive); in [10] it was 33.3 µM (inactive); in assay [11], > 100 µM (inactive); in [12] it was 17.6 µM (inactive); in [13] it was 48.2 µM (inactive); in assay [14], 17.2 µM (inactive). In addition, the GI50 in assay [15] is 14.2 µM (inactive); in assay [18], 32.2 µM (inactive); in assay [16], 18.9 µM (inactive); in assay [17], 18.7 µM (inactive).
For the compound `Cc1ccc(C2CC(c3ccc([N+](=O)[O-])cc3)=Nc3ccccc3S2)cc1` (configuration not stated), the GI50 in assay [1] is 16.3 µM (inactive); in [2] it was 41.8 µM (inactive); in [3], 42.6 µM (inactive); in [5], 61.5 µM (inactive); in [7], 26.6 µM (inactive); in assay [8], 23.4 µM (inactive). The GI50 is 28.3 µM (inactive) in [9]; 50.8 µM (inactive) in assay [10]; 19.5 µM (inactive) in assay [11]; 27.4 µM (inactive) in assay [12]; 30.3 µM (inactive) in assay [13]; 17.1 µM (inactive) in [14]. Moreover, the GI50 in [15] was 89.9 µM (inactive); in [17] it was 28.6 µM (inactive).
